IC50 and inhibition data for 13 compounds are collected here from US9828379B2 (priority 2013, dated 2017).

Test [1] addresses T1, MAGL (Mus musculus, UniProt O35678).
T1 sequence (O35678 1-303): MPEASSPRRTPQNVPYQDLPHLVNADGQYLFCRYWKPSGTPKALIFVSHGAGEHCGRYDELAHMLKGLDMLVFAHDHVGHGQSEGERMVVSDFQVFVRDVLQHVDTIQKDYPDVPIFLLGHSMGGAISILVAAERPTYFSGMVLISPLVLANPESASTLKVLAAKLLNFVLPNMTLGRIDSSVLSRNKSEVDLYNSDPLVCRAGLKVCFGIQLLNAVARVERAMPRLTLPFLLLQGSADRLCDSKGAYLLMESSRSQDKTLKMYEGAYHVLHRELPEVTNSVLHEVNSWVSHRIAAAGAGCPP
The experiment in a line: biochemical. Conditions: mouse; in vitro competitive ABPP; read-out: Mouse (IC50 value, nM) MAGL.

Test [2] deals with T2, FAAH (Mus musculus, UniProt O08914).
T2 sequence (O08914 1-579): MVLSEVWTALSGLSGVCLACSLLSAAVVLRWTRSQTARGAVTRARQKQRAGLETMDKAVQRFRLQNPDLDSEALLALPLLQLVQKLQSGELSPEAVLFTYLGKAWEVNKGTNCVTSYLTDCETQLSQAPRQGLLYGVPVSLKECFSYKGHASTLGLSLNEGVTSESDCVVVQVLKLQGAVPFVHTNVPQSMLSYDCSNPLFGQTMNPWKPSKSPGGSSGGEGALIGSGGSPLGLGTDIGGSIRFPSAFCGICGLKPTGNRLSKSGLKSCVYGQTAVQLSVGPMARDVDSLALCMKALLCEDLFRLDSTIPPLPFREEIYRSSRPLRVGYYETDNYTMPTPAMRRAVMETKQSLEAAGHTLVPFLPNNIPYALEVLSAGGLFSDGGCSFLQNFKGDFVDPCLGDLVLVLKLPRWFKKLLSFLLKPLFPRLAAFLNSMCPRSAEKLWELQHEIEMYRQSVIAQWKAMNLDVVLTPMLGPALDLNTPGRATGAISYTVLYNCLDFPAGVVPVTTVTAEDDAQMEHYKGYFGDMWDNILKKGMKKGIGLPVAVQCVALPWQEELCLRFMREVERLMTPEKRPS
The experiment in a line: biochemical. As to conditions: in vitro competitive ABPP.

Test [3] deals with T3, ABHD6 (Mus musculus, UniProt Q8R2Y0).
T3 sequence (Q8R2Y0 1-336): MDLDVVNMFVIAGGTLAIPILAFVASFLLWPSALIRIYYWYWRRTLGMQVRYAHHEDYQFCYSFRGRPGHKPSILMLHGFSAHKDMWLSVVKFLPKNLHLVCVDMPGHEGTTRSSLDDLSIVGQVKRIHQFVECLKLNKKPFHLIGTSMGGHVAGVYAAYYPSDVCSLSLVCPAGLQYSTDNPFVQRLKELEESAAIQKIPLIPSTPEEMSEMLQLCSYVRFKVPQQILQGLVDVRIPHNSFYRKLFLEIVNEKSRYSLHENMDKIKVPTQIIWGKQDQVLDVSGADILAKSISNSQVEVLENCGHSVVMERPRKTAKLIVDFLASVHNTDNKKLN
The experiment in a line: In vitro competitive activity-based protein profiling (Table 2, % inhibition at 1 μM). The format is biochemical. As to conditions: read-out: % Inhibition at 1 μM ABHD6.

Test [4] addresses T2, FAAH. Described as above. As to conditions: read-out: % Inhibition at 1 μM FAAH. The format is biochemical.
For test [5], the target named is T3, ABHD6. Briefly: biochemical. As to conditions: in vitro competitive ABPP.
Test [6] addresses T1, MAGL. Briefly: In vitro competitive activity-based protein profiling (Table 2, % inhibition at 1 μM). The format is biochemical. Conditions: read-out: % Inhibition at 1 μM MAGL. The method, then:
After 30 min, FP—Rh (1.0 μL, 50 μM in DMSO) was added and the mixture was incubated for another 30 min at 37° C. Reactions were quenched with SDS loading buffer (50 μL-4×) and run on SDS-PAGE.
Cell lysates were diluted with mock proteomes for use in competitive ABPP experiments.

A value given as a limit tells only on which side of the number the result lay.

One may read the IC50 as the concentration that gives 50% inhibition. For orientation: inhibition means the percentage by which the read-out fell short of the control.

On to `CCc1cc(CN2CC3CN(C(=O)OC(C(F)(F)F)C(F)(F)F)CC3C2)n(C2CCOCC2)n1` (stereo not drawn) [Example 156, 1,1,1,3,3,3-hexafluoropropan-2-yl 5-[[3-ethyl-1-(oxan-4-yl)-1H-pyrazol-5-yl]methyl]-octahydropyrrolo[3,4-c]pyrrole-2-carboxylate], for which the IC50 at MAGL [1] was less than 100 nM; on FAAH [2] it was 1000 to 10000 nM; on ABHD6 [5], 1000 to 10000 nM. Further, the inhibition at 1 µM is less than 25% on ABHD6 [3], less than 25% on FAAH [4] and greater than 75% on MAGL [6].
`O=C(OC(C(F)(F)F)C(F)(F)F)N1CC2CN(Cc3cc(CN4CCOCC4)cc(OC(F)(F)F)c3)CC2C1` (stereo not drawn) [Example 183, 1,1,1,3,3,3-hexafluoropropan-2-yl 5-(3-(morpholinomethyl)-5-(trifluoromethoxy)benzyl)hexahydropyrrolo[3,4-c]pyrrole-2(1H)-carboxylate]: the IC50 at MAGL [1] fell in the range of 100 to 1000 nM; on FAAH [2] it was 1000 to 10000 nM; at ABHD6 [5] it was 1000 to 10000 nM. The inhibition at 1 µM is less than 25% on ABHD6 [3], less than 25% at FAAH [4] and greater than 75% on MAGL [6].
As for `O=C(OC(C(F)(F)F)C(F)(F)F)N1CC2CN(Cc3ccc(Cl)cc3N3CCn4ccnc4C3)CC2C1` (stereo not drawn) [Example 33, 1,1,1,3,3,3-Hexafluoropropan-2-yl 5-[(4-chloro-2-[5H,6H,7H,8H-imidazo[1,2-a]pyrazin-7-yl]phenyl)methyl]-octahydropyrrolo[3,4-c]pyrrole-2-carboxylate], the 50% inhibitory concentration (IC50) on MAGL [1] was less than 100 nM; on FAAH [2], 1000 to 10000 nM; on ABHD6 [5], 1000 to 10000 nM. Besides, the values for the inhibition at 1 µM on ABHD6 [3], on FAAH [4] and at MAGL [6] were 25 to 75%, 25 to 75% and greater than 75%, respectively.
Take `O=C(OC(C(F)(F)F)C(F)(F)F)N1CC2CN(Cc3ccc(Cl)cc3N3Cc4cccnc4C3)CC2C1` (stereo not drawn) [Example 32, 1,1,1,3,3,3-Hexafluoropropan-2-yl 5-[(4-chloro-2-[5H,6H,7H-pyrrolo[3,4-b]pyridin-6-yl]phenyl)methyl]-octahydropyrrolo[3,4-c]pyrrole-2-carboxylate]: the results for the half-maximal inhibitory concentration (IC50) on MAGL [1], on FAAH [2] and on ABHD6 [5] were less than 100 nM, 1000 to 10000 nM and 1000 to 10000 nM, respectively. Moreover, the inhibition at 1 µM at ABHD6 [3] was 25 to 75%; at FAAH [4], 25 to 75%; on MAGL [6], greater than 75%.
As to `O=C(ON1C(=O)CCC1=O)N1CC2CN(Cc3ccc(N4CCOCC4)cc3OC(F)(F)F)CC2C1` (stereo not drawn) [Example 86, 2,5-Dioxopyrrolidin-1-yl 5-[[4-(morpholin-4-yl)-2-(trifluoromethoxy)phenyl]methyl]-octahydropyrrolo[3,4-c]pyrrole-2-carboxylate], the IC50 on MAGL [1] fell in the range of 100 to 1000 nM; on FAAH [2] it was 1000 to 10000 nM; on ABHD6 [5], 1000 to 10000 nM. The results for the inhibition at 1 µM on ABHD6 [3], on FAAH [4] and at MAGL [6] were less than 25%, 25 to 75% and greater than 75%, respectively.
For `O=C(OC(C(F)(F)F)C(F)(F)F)N1CC2CN(Cc3ccc(N4CCCC4)cc3C(F)F)CC2C1` (stereo not drawn) [Example 202, 1,1,1,3,3,3-hexafluoropropan-2-yl 5-(2-(difluoromethyl)-4-(pyrrolidin-1-yl)benzyl)hexahydropyrrolo[3,4-c]pyrrole-2(1H)-carboxylate], the half-inhibitory concentration (IC50) at MAGL [1] was in the range of 100 to 1000 nM; at FAAH [2], 1000 to 10000 nM; at ABHD6 [5], 1000 to 10000 nM. The inhibition at 1 µM at ABHD6 [3] was less than 25%; on FAAH [4], 25 to 75%; on MAGL [6], greater than 75%.
Regarding `CCn1ncc(CN2CC3CN(C(=O)OC(C(F)(F)F)C(F)(F)F)CC3C2)c1C(=O)NCc1ccccc1` (stereo not drawn) [Example 75, 1,1,1,3,3,3-Hexafluoropropan-2-yl 5-((5-(benzylcarbamoyl)-1-ethyl-1H-pyrazol-4-yl)methyl)hexahydropyrrolo[3,4-c]pyrrole-2(1H)-carboxylate], the values for the IC50 at MAGL [1], on FAAH [2] and on ABHD6 [5] were less than 100 nM, 1000 to 10000 nM and 100 to 1000 nM, respectively. In addition, the inhibition at 1 µM is greater than 75% at ABHD6 [3], less than 25% on FAAH [4] and greater than 75% at MAGL [6].
As to `CC(=O)N1CCN(c2ccc(CN3CC4CN(C(=O)OC(C(F)(F)F)C(F)(F)F)CC4C3)c(Cl)c2)CC1` (stereo not drawn) [Example 28, 1,1,1,3,3,3-Hexafluoropropan-2-yl 5-[[4-(4-acetylpiperazin-1-yl)-2-chlorophenyl]methyl]-octahydropyrrolo[3,4-c]pyrrole-2-carboxylate], the concentration for half-maximal inhibition (IC50) is less than 100 nM on MAGL [1], 100 to 1000 nM on FAAH [2] and 1000 to 10000 nM on ABHD6 [5]. Besides, the inhibition at 1 µM is less than 25% at ABHD6 [3], 25 to 75% at FAAH [4] and greater than 75% on MAGL [6].
With `CC(=O)NC1CCN(c2cccc(CN3CC4CN(C(=O)OC(C(F)(F)F)C(F)(F)F)CC4C3)c2C)CC1` (stereo not drawn) [Example 151, 1,1,1,3,3,3-hexafluoropropan-2-yl 5-[[3-(4-acetamidopiperidin-1-yl)-2-methylphenyl]methyl]-octahydropyrrolo[3,4-c]pyrrole-2-carboxylate], the IC50 at MAGL [1] was less than 100 nM; at FAAH [2] it was 1000 to 10000 nM; on ABHD6 [5], 1000 to 10000 nM. Also, the results for the inhibition at 1 µM at ABHD6 [3], at FAAH [4] and at MAGL [6] were 25 to 75%, less than 25% and greater than 75%, respectively.
On to `O=C(OC(C(F)(F)F)C(F)(F)F)N1CC2CN(Cc3cccc(Cl)c3N3CCOCC3)CC2C1` (stereo not drawn) [Example 44, 1,1,1,3,3,3-Hexafluoropropan-2-yl 5-[[3-chloro-2-(morpholin-4-yl)phenyl]methyl]-octahydropyrrolo[3,4-c]pyrrole-2-carboxylate], for which the half-inhibitory concentration (IC50) at MAGL [1] was less than 100 nM; on FAAH [2] it was 1000 to 10000 nM; at ABHD6 [5], 1000 to 10000 nM. For the same compound, the inhibition at 1 µM at ABHD6 [3] is less than 25%; at FAAH [4], less than 25%; at MAGL [6], greater than 75%.
As for `Cc1c(CN2CC3CN(C(=O)OC(C(F)(F)F)C(F)(F)F)CC3C2)cccc1C(=O)N1CCCC1` (stereo not drawn) [Example 186, 1,1,1,3,3,3-hexafluoropropan-2-yl 5-(2-methyl-3-(pyrrolidine-1-carbonyl)benzyl)hexahydropyrrolo[3,4-c]pyrrole-2(1H)-carboxylate], the IC50 is less than 100 nM on MAGL [1], 1000 to 10000 nM at FAAH [2] and 1000 to 10000 nM at ABHD6 [5]. In addition, the inhibition at 1 µM at ABHD6 [3] was 25 to 75%; on FAAH [4] it was less than 25%; at MAGL [6], greater than 75%.
Consider `O=C(OC(C(F)(F)F)C(F)(F)F)N1CC2CN(Cc3ccc(N4CCOCC4)cc3C(F)F)CC2C1` (stereo not drawn) [Example 200, 1,1,1,3,3,3-hexafluoropropan-2-yl 5-(2-(difluoromethyl)-4-morpholinobenzyl)hexahydropyrrolo[3,4-c]pyrrole-2(1H)-carboxylate], for which the concentration for half-maximal inhibition (IC50) is 100 to 1000 nM at MAGL [1], 1000 to 10000 nM on FAAH [2] and 1000 to 10000 nM at ABHD6 [5]. The inhibition at 1 µM on ABHD6 [3] was less than 25%; at FAAH [4], 25 to 75%; on MAGL [6], greater than 75%.
With `O=C(OC(C(F)(F)F)C(F)(F)F)N1CC2CN(Cc3ccc(C(F)F)cc3N3CCOCC3)CC2C1` (stereo not drawn) [Example 203, 1,1,1,3,3,3-hexafluoropropan-2-yl 5-(4-(difluoromethyl)-2-morpholinobenzyl)hexahydropyrrolo[3,4-c]pyrrole-2(1H)-carboxylate], the IC50 at MAGL [1] is less than 100 nM; on FAAH [2] it was 1000 to 10000 nM; at ABHD6 [5], 1000 to 10000 nM. Further, the inhibition at 1 µM is 25 to 75% on ABHD6 [3], less than 25% at FAAH [4] and greater than 75% at MAGL [6].
